In article PMC7435868, “Structure-Based Virtual Screening, Synthesis and Biological Evaluation of Potential FAK-FAT Domain Inhibitors for Treatment of Metastatic Cancer” (Molecules, 2020):

Experiments:
FAK = molecular target: T1, FAK (Homo sapiens, UniProt Q05397); assay: Western blotting of FAK activity; type: cell-based; details: MDA-MB-231, Western blot
T1 construct: in an in vitro model of TNBC, MDA-MB-231; endogenous in cells; host or cells: MDA-MB-231 (human triple negative breast cancer cells)
Excerpt: This was expected, given that this compound limits protein–protein scaffolding interaction rather than kinase activity and subsequent phosphorylation of key FAK residues.

BT474 = assay: Cell viability assay (CellTiter Glo), BT474; type: cell-based, human; details: Homo sapiens, BT-474, 72 h, 72 h incubation, mean of independent triplicate experiments, read-out: In vitro anti-proliferative activity IC50, BT474 ER+ PR+/- HER+
Protocol: The antiproliferative activity of compound I as well as its newly synthesised analogues (5a–i) was evaluated in vitro against the three human breast cancer cell lines MDA-MB-231 (TNBC), T47D (ER^+, HER^−), and BT474 (ER^+, HER^+) as well as a human pancreatic cancer cell line MIAPaCa2. The seeding of the corresponding cell lines started one day before incubation, which lasted for 72 h with the different concentrations of the tested compounds. CellTiter Glo reagent (25 μL) was added to the cell plate. The luminescence was analysed after 10 min using a PerkinElmer Envision instrument. The test compounds were used at ten different triplicate concentrations in half log increments up to 100 μM.

MDA-MB-231 cells = assay: Cell proliferation assay (7-day cell counting); type: cell-based, human; details: 7-day proliferation, 1 μM, vs vehicle-only control
Protocol: To assess proliferation, cells were seeded at 4.2 × 10^5 cells/mL in 24-well plates. Following 24 h, the media were replaced with fresh RPMI + 5% FCS, in the presence or absence of treatments and a selection of wells counted (day 0 counts). Cells were subsequently counted each day up to 7 days to assess proliferation. Briefly, this entailed the removal of old media and the addition of trypsin/EDTA in order to lift cells before passing gently through a 25 G needle to achieve a single-cell suspension. The resulting solution was then added to isoton in a counting cup and the cell number was determined using a Coulter Multisizer III (Beckman Coulter Life Sciences, Indianopolis, IN, USA) Each well was counted twice with all conditions performed in triplicate.

T1 sequence (Q05397 whole entry): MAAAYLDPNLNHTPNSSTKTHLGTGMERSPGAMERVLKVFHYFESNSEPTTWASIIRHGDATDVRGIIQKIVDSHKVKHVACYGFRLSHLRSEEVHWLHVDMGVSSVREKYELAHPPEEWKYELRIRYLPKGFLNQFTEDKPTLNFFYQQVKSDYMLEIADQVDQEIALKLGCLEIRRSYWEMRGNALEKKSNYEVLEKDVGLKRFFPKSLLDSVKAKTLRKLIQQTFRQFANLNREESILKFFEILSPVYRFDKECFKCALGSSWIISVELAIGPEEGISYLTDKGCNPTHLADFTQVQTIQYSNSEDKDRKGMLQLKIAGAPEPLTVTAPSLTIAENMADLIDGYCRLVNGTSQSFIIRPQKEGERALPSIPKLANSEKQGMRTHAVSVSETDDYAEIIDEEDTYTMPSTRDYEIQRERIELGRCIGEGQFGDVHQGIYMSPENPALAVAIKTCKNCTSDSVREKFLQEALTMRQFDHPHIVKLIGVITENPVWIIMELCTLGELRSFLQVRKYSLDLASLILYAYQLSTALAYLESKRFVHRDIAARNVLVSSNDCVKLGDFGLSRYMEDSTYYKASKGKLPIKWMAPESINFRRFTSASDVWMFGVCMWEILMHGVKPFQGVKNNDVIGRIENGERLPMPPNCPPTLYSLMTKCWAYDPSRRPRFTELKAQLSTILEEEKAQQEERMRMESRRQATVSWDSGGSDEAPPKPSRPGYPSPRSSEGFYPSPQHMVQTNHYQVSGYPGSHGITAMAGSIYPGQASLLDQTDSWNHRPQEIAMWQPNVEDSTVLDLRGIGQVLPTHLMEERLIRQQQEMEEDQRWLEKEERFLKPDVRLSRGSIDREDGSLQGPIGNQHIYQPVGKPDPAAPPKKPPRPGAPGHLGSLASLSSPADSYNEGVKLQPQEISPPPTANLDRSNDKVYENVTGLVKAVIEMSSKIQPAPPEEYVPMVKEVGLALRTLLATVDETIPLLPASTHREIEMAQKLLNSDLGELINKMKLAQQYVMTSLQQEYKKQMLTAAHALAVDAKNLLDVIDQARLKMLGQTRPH

CC(C)(C)c1ccc(C(CN)c2ccc(Cl)cc2)cc1 (stereo not shown) [Compound I]
Activity of FAK Y397 / FAK Y925 (phosphorylation) (FAK): no significant changes
Stability of total FAK protein (FAK): no changes in the stability of total FAK protein
IC50 (BT474): 2670 nM
Proliferation rates of MDA-MB-231 cells (MDA-MB-231 cells): significantly reduce proliferation rates
